Experimental data reported in patent publication US20020132845A1, “Compositions and methods for the prevention and treatment of tissue ischemia” (priority 2000, published 2002).
Entries after “also recorded” stand apart in the source; their conditions may differ.

Assays:
[1] = system: transient focal cerebral ischemia induced by Middle Cerebral Artery Occlusion (MCAO); test: Animal cerebral infarct assay: two-hour Middle Cerebral Artery Occlusion (MCAO) with reperfusion; assay type: in vivo, rat; conditions: for total infarct volume relative to control animals: administered (I.V.) at the time of MCAO; for total ischemic damage relative to control animals: I.V. at the time of MCAO; for reduction of infarct volume: administered at reperfusion; for tissue edema relative to controls / total ischemic damage relative to controls / total infarct volume relative to controls: administered at the time of reperfusion; for edema relative to control animals: at the time of MCAO
Excerpt: This assay is used to assess the efficacy of the test agents in protecting the brain against necrosis following cerebral ischemia induced in rats. Middle Cerebral Artery Occlusion (MCAO) is a widely used technique to induce transient focal cerebral ischemia in animal models. […] Furthermore, this model accurately represents the involvement of middle cerebral artery (MCA), the most affected vessel in human stroke, and also allows reperfusion as it happens in humans. MCAO by a two-hour occlusion is used to produce the maximum size of cortical infarction without increased mortality at twenty-four hours. Male Wistar rats (Hadan, Ind.) weighing 300-350 g were allowed free access to water and commercial rodent diet under standard laboratory conditions. The room temperature was maintained at 20-23° C. and room illumination was on a 12/12-hour light/dark cycle. The rats were acclimatized to the laboratory environment 5 to 7 days prior to the study. Before surgery, the animals were fasted overnight, but had free access to water. The rats were anesthetized with 3.0% isoflurane (Aerrane, Front Dodge, Iowa) in […] and the animal's neck was shaved and sterilized before the operation. The animals were subjected to two hours MCAO using a modified intraluminal filament technique. A midline incision on the ventral part of the neck was made to expose external and internal carotid arteries. The right external and common carotid arteries were ligated by a suture (silk 5/0, Carlisle Laboratories, Farmers Branch, Tex.) and the right internal artery was temporarily ligated by a microvascular clip (Fine Science Tool Inc., Foster City, Calif.). A small incision was made in the common carotid artery and a nylon filament, its tip rounded by heating, prepared from a fishing line (Stren Fishing Lines, Wilmington, Del.) was inserted from the right common carotid artery. The filament was advanced into the internal carotid artery 18-20 mm from the point of bifurcation of internal and external arteries and a suture was tightly ligated around the filament. Two hours post occlusion, the animals were re-anesthetized to allow reperfusion for the remaining of the experiment by removal of the filament. The anesthetized animal were placed on a stereotaxic apparatus (Harvard Apparatus, S. Natick, Mass.). Anesthesia was maintained by inhalation of 3.0% isoflurane in […] throughout the entire procedure. The scalp was shaved and sterilized prior to surgery. A midline sagittal incision about 3 cm long was made slightly behind the eyes to expose the skull. The skull was scraped with a rounded end spatula to remove periosteal connective tissue. A bur hole was placed 1.5 mm lateral, 1 mm posterior to the left of the bregma to mark the left lateral ventricle. A brain infusion cannula (ALZET CO. Palo Alto, Calif.) was inserted 4 mm deep into the hole. The desired depth was adjusted by attaching spacers to the cannula. The cannula was attached to a 4-cm silastic catheter (Helix Medical Inc.) fixed in place with dental cement (Ketac-cement, Norristown, Pa.). The catheter was either attached to a primed osmotic pump placed subcutaneously between the shoulder blades for permanent infusion or to a syringe for a short infusion. Anesthesia was maintained by inhalation of 3.0% isoflurane in […] throughout the entire procedure. The exterior site of the right femoral vein was shaved and sterilized prior to surgery. A 3 cm incision was made in the right groin region and the femoral vein was isolated. A small incision was made on the femoral vein temporarily ligated with a microvascular clip to introduce and advance a polyethylene (PE-50) catheter (Becton. Dickinson and Co., Sparks, Md.). The catheter was secured in place with suture (silk 5/0, Carlisle Laboratories, Farmers Branch, Tex.). The other end of the catheter was attached to a syringe filled with the heparinized saline for the bolus injection. […]

[2] = Experiments performed in support of the invention: synergy of hesperetin with tocopherols (test not specified)
[3] = system: congestive heart failure (CHF); test: Model of congestive heart failure: permanent ligation of the left coronary artery (Example 6); assay type: in vivo, rat; conditions: after permanent ligation of the left coronary artery
[4] = oral gavage pre-MCAO, dose not given
[5] = oral gavage pre-MCAO (3 hours), 10 mg/kg
[6] = listed as gamma-tocopherol enriched composition
[7] = listed as gamma-tocopherol enriched tocopherol composition
[8] = listed as gamma-tocopherol metabolite enriched composition

Cc1cc(O)cc2c1O[C@](C)(CCC[C@H](C)CCC[C@H](C)CCCC(C)C)CC2 (relative stereo) [delta-tocopherol, [2R-[2R*(4R*,8R*)]]-3,4-dihydro-2,8-dimethyl-2-(4,8,12-trimethyltridecyl)-2H-1-benzo-pyran-6-ol]
reduction of infarct size ([1]; IV, 0.60 mg/kg): 52%
total infarct volume relative to control animals [1]: reduce total infarct size
reduction of infarct size [1, 4]: 48%
reduction of total infarct volume compared with alpha-tocopherol ([1]; rat, in vivo): more effective

COc1ccc([C@@H]2CC(=O)c3c(O)cc(O)cc3O2)cc1O [hesperetin, (S)-2,3-dihydro-5,7-dihydroxy-2-(3-hydroxy-4-methoxyphenyl)-4H-1benzopyran-4-one]
synergy with gamma-tocopherol and delta-tocopherol [2]: act synergistically

Cc1cc(O)c(C)c2c1OC(C)(CCCC(C)CCCC(C)CCCC(C)C)CC2 (stereo not drawn) [beta-tocopherol, 3,4-dihydro-2,5,8-trimethyl-2-(4,8,12-trimethyltridecyl)-2H-1-benzopyran-6-ol]
total infarct size ([1]; gavage, three hours pre-MCAO): reduce total infarct size
reduction of infarct size [1, 5]: 76%

Cc1c(O)cc2c(c1C)OC(C)(CCCC(C)CCCC(C)CCCC(C)C)CC2 (stereo not shown) [gamma-tocopherol, 3,4-dihydro-2,7,8-trimethyl-2-(4,8,12-trimethyltridecyl)-2H-1-benzyopyran-6-ol]
reduction of infarct size ([1]; 6 mg/kg at MCAO (IV)): 82%
total ischemic damage relative to control animals [1]: significantly reduced
reduction of infarct size ([1]; IV, 0.6 mg/kg, at MCAO): 81%
total infarct volume relative to control animals [1, 6]: reduce total infarct size
total infarct volume relative to control animals [1, 7]: significantly reduced; also recorded: reduce total infarct
reduction of infarct volume ([1]; 10 mg/kg): 70%
tissue edema relative to controls [1]: reduction
total ischemic damage relative to controls [1]: reduction
total infarct volume relative to controls [1, 6]: reduce total infarct size; also recorded: reduction
total infarct volume relative to controls [1, 7]: reduce total infarct
reduction of tissue edema compared with alpha- or delta-tocopherol ([1]; at the same concentration): more effective
reduction of total infarct volume compared with alpha- or delta-tocopherol ([1]; at the same concentration): more effective
edema relative to control animals [1]: significantly reduced
mean reduction of infarct volumes ([1]; intraperitoneal, 10-20 mg/kg, at MCAO or 3 hours post-reperfusion): 20-57%
reduction of infarct size / infarct volume ([1]; oral gavage 3 hours pre-MCAO, 4 mg/kg): 53%
reduction of infarct size [1, 5]: 77%

Cc1c(O)cc2c(c1C)OC(C)(CCC(=O)O)CC2 (stereo not shown) [gamma-CEHC, 6-hydroxy-2,7,8-trimethylchroman-2-propanoic acid]
total ischemic damage relative to control animals [1]: significantly reduced
decrease of neuronal damage ([1]; IV at MCAO, drug range 0.1-5 mg/kg): 50-65%
total infarct volume relative to control animals [1]: reduce total infarct size; also recorded: significantly reduced
total infarct volume relative to control animals [1, 8]: reduce total infarct
reduction of infarct volume ([1]; 10 mg/kg): 52%
tissue edema relative to controls [1]: reduction
total infarct volume relative to controls [1]: reduce total infarct size
total ischemic damage relative to controls [1]: reduction
total infarct volume relative to controls [1, 8]: reduction; also recorded: reduce total infarct
edema relative to control animals [1]: reduced tissue edema

Cc1c(C)c2c(c(C)c1O)CC[C@@](C)(CCC[C@H](C)CCC[C@H](C)CCCC(C)C)O2 (relative stereo) [alpha-tocopherol, [2R-2R*(4R*,8R*)]-3,4-dihydro-2,5,7,8-tetramethyl-2-(4,8,12-trimethyltridecyl)-2H-1-benzopyran-6-ol, reference compound]
reduction of infarct size ([1]; 6 mg/kg at MCAO (IV)): 42%
reduction of infarct size [1, 4]: 43%

C[C@H](CS)C(=O)N1CCC[C@H]1C(=O)O [captopril, 1-[(2S)-3-mercapto-2-methylpropionyl]-L-proline]
heart weight [3]: reduced heart weight
left ventricular systolic pressure (LVSP) [3]: reduced LVSP
